These results are taken from paper PMC10573977, “PNA6, a Lactosyl Analogue of Angiotensin-(1-7), Reverses Pain Induced in Murine Models of Inflammation, Chemotherapy-Induced Peripheral Neuropathy, and Metastatic Bone Disease” (International Journal of Molecular Sciences, 2023).

For orientation: Tmax means the time at which the peak concentration occurs. The term half-life denotes the time in which the quantity being followed falls by half. Higher therefore signals slow loss. For orientation: Kd means the concentration at which binding is half-saturated.

The conditions of data set [1]: no reference given, cited from earlier work. An excerpt: Our team has taken a novel approach to treating CIPN by taking advantage of our extensive experience with the G-protein linked Mas receptor and its agonist Ang-(1-7) to develop a platform of glycosylated Ang-(1-7) Mas receptor agonists including PNA5 and PNA6 that have outstanding brain penetration, enhanced bioavailability, decreased brain and peripheral inflammation, improved cerebral blood flow, and restored cognitive function in our preclinical vascular dementia and TBI animal models. Activation of Mas decreases ROS and brain inflammation, increases cerebral circulation, increases inductio ...

The nature of data set [2]: in vivo. The note with it: male, Sprague Dawley, rat, serum, iv, 10 mg/kg.
Method: To directly compare the in vivo lifetime and the ability of PNA6 to cross the blood–brain barrier (BBB), we devised a methodology that combines simultaneous blood sampling with microdialysis. PNA6 was administered via a single tail vein injection at a dosage of 10 mg/kg. Blood samples were collected at specific time intervals relative to the injection, including t = −10, 1, 5, 10, 20, 30, 40, 50, 60, 70, 80, and 90 min (with t = 0 corresponding to the moment of injection) as shown in Figure 4. The determination of serum and cerebrospinal fluid (CSF) concentrations of PNA6 involved the utilization of a calibration curve, which accounted for factors such as dilution and probe recovery specific to each experimental condition.
Animals for Dialysis: Male Sprague Dawley rats (275–325 g) were used for dialysis experiments in vivo.
The compounds were injected intravenously at 10 mg/kg via a single tail vein injection. Blood draws were taken at t = −10, 1, 5, 10, 20, 30, 40, 50, 60, 70, 80, and 90 min (where t = 0 corresponds to injection). Microdialysis fractions were time-locked with blood draws at 10 min increments such that blood draws correlated with the median time of the microdialysis fraction. For microdialysis, a dual syringe pump (PHD 2000, Harvard Apparatus, Holliston, MA, USA) was set to a flow rate of 0.5 mL/minute. […]
The subject of data set [3] is cancer-induced bone loss. The experiment in a line: Radiographic analysis of femur bone integrity (bone score). The class given is in vivo, mouse. The text has this: Radiographic images of mice’s right femurs with established (CIBP) or sham were captured using a Faxitron machine. Bone loss was rated and evaluated using a bone score scale by a blinded observer where 0 = normal healthy bone; 1 = 1–3 lesions; 2 = 4 to 6 lesions; 3 = uni-cortical bone fractures; and 4 = bicortical bone fractures.
A digital Faxitron machine (Ultrafocus; Faxitron Bioptics, Tucson, AZ) was used to image the femurs of all mice (all groups in chronic studies) on days 0 (baseline), 7, 10, and 14 post-surgery to determine an average bone score and to exclude the data for any mice with full cortical fracture before day 14. Two blinded observers evaluated the images using a 5-point bone rating scale. Mice were anesthetized with 80 mg/kg ketamine to 12 mg/kg xylazine (in a 10 mL/kg volume) on day 0 before the surgery, D7, D10, and D14, and radiographs were acquired. The bone scoring scale was as follows: 0 = normal bone, 1 = 1–3 lesions with no fracture, 2 = 4+ lesions with no fracture, 3 = uni-cortical, full thickness fracture, and 4 = bicortical, full thickness fracture. Animals with bicortical, full fractures were euthanized as our IACUC protocol measures dictated.

Data set [4] concerns naïve mice. The note with it: 1 mg/kg i.p., 30, 60, 90 and 120 min after treatment, 10 rpm, cut-off 180 s, vs vehicle.
Method: The rotarod test is widely used to evaluate the motor coordination of rodents, and we used it to determine the motor effect of PNA6 to prevent interpretation of behavior as a false positive. Four days before testing, naïve mice were trained to acclimate to the rotating rod (LE8505 Rota-Rod, Panlab Harvard Apparatus, Spain) at a constant speed of 10 rpm. A maximal cut-off time of 180 s was used to prevent exhaustion. On the day of testing, mice were baselined and re-evaluated at 30, 60, 90, and 120 min after treatment.
Data set [5] concerns the target Mas receptor (Homo sapiens) (UniProt P04201). The note with it: cited from earlier work.
Data set [6] relates to Mas receptor (MasR1). The note with it: cited from earlier work. An excerpt:
The renin-angiotensin system (RAS) is a crucial player in regulating blood pressure and fluid homeostasis. The octapeptide, Angiotensin II, is the first significant end product. Angiotensin II binds strongly to G-coupled protein receptors (GPCRs), Angiotensin receptor type 1 (AT1), to produce vasoconstriction, sodium-water retention, inflammation, and fibrosis; and it binds weakly to Angiotensin II receptor type II (AT2), which produces vasodilation and angiogenesis. Angiotensin II is cleaved by Angiotensin-converting enzyme 2 (ACE2) to yield the heptapeptide, Ang-(1-7), which ha ...

Residues, ends and D or L forms follow the SMILES beside them. *: point of attachment. X1 = OC[C@H]1O[C@@H](O[C@H]2[C@H](O)[C@@H](O)[C@H](*)O[C@@H]2CO)[C@H](O)[C@@H](O)[C@H]1O

Angiotensin-(1-7), sequence (P01019 whole entry, looked up): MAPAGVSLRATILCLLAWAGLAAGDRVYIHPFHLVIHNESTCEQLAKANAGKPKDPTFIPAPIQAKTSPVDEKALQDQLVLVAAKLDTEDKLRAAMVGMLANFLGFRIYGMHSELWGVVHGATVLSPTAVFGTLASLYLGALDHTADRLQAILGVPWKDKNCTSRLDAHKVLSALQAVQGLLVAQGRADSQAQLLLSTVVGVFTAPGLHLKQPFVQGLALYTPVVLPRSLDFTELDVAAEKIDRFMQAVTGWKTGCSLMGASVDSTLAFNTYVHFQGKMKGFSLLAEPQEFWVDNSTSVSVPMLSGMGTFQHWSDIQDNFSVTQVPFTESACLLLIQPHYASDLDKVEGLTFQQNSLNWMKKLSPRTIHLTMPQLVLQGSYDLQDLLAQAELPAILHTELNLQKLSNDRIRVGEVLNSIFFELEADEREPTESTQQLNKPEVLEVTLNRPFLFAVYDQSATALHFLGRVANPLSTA
Mas receptor (Homo sapiens), sequence (P04201 whole entry): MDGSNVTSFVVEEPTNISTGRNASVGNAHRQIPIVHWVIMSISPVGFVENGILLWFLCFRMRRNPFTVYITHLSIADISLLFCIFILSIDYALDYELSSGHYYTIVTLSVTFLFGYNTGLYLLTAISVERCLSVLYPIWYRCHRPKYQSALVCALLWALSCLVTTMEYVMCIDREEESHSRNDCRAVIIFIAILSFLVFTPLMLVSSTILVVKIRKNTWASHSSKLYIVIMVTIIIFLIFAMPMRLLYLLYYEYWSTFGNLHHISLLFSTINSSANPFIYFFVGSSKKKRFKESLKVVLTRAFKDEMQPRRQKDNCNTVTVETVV

Turning to `CC[C@H](C)[C@H](NC(=O)[C@H](Cc1ccc(O)cc1)NC(=O)[C@@H](NC(=O)[C@H](CCCNC(=N)N)NC(=O)[C@@H](N)CC(=O)O)C(C)C)C(=O)N[C@@H](Cc1c[nH]cn1)C(=O)N[C@@H](CO[C@@H]1O[C@H](CO)[C@@H](O[C@@H]2O[C@H](CO)[C@H](O)[C@H](O)[C@H]2O)[C@H](O)[C@H]1O)C(N)=O` [PNA6, Asp-Arg-Val-Tyr-Ile-His-Ser-(O-β-Lact)-amide] (H-DRVYIHS(X1)-NH2), the “penetration into the CNS” value in data set [1] ('has been shown') is “good penetration into the CNS”. Also, in data set [2], the Tmax was 1 min and the half-life amounted to 22.1 min. Moreover, the “cancer-induced bone loss vs vehicle” value in data set [3] (cancer-bearing mice, chronic treatment, radiographs day 14, n = 10–12) is listed as “did not exacerbate cancer-induced bone loss degradation”. Further, the “bone remodeling in sham animals” value in data set [3] (sustained saline or PNA6, day 14) is reported as “had no change in bone remodeling”. For the same molecule, the “time spent on the rotating rod” value in data set [4] is on record as “neither increased nor decreased the time”.
As to Angiotensin-(1-7) (from UniProt P01019), the Kd in data set [5] was 0.83 nM.
Consider DRVYIHP [Ang-(1-7), Angiotensin-(1-7)], for which the half-life in vivo result in data set [1] (degraded rapidly by enzymes) is reported as “short half-life in vivo”. Also, the “selectivity for MasR1 over AT1 receptor” value in data set [6] (greater selectivity over AT1) is given as 60 fold. Also, the “selectivity for MasR1 over AT2 receptor” value in data set [6] (greater selectivity over AT2) is given as 100 fold.
